The results in this text go back to patent publication US6605627B2, “Modulators of peroxisome proliferator activated receptor-gamma, and methods for the use thereof” (The Salk Insitute for Biological Studies, priority 1999, dated 2003).

SMILES strings stand for the structures.

For this experiment, the target named is T1, GAL4-PPARγ fusion protein (Mus musculus, UniProt P37238).
T1 construct: expressed in transfected cells; host or cells: CV-1 cells
T1 sequence (P37238 163-475 isoform P37238-2): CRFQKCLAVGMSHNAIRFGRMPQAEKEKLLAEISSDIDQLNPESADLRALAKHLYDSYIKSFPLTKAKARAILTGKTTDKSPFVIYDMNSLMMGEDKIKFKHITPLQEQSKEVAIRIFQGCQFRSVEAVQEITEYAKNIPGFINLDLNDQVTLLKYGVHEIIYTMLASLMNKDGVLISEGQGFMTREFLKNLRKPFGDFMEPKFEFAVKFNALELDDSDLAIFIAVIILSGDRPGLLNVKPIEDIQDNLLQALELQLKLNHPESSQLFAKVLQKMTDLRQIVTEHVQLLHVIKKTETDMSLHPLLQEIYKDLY
In words: Screening assay for PPAR-γ antagonists (GAL4-PPARγ luciferase reporter in CV-1 cells). Type of experiment: cell-based. The note with it: CV-1 cells co-transfected with CMX-GAL-PPARγ and pTK-MH100x4-LUC; test compound alone or with agonist 200 nM BRL 49653; FIG. 1. As to the method: Effector plasmid, reporter plasmid, and β-galactosidase control plasmid are co-transfected into CV-1 cells at a ratio of about 1:3:5, using a liposome-mediated method, employing N-{2-(2,3)-dioleoyloxy)propyl-N,N,N-trimethyl ammonium methyl sulfate} (i.e., DOTAP, Boehlinger Mannheim) according to the manufacturer's instructions in Dulbecco's modified Eagle's medium (DMEM) with 10% delipidated hormone-depleted fetal calf serum. After about 2-3 hours, the cells are washed with DMEM and agonist (200 nM BRL 49653) and/or an appropriate test compound (LY 171883; see FIG. 1) is added to the media. After 24-48 hours of incubation, the cells are rinsed with phosphate buffered saline (pH 7.2) and lysed. Aliquots are assayed for luciferase and β-galactosidase activity. Luciferase activity is normalized to optical density units of β-galactosidase per minute of incubation.
Thus, CV-1 cells are co-transfected with CMX-GAL-PPARγ and pTK-MH100x4-LUC at a ratio of about 100 ng of receptor-encoding DNA per 10^5 cells. The usual amounts of DNA per 10^5 cells are 100 ng of CMX-GAL-PPARγ, 300 ng of pTK-MH100x4-LUC, and 500 ng of CMX-βGAL. Typically, transfections are performed in triplicate. The plates are then incubated for 2-3 hours at 37° C.
The cells are washed with fresh medium. […]
The data are expressed as relative light units (RLUs) per O.D. unit of β-galactosidase per minute. […]

For `CCCc1c(OCCCCc2nnn[nH]2)ccc(C(C)=O)c1O` [LY 171883], the “relative reporter activity (functional activity at PPARγ)” value was “functional antagonist of PPARγ”.
